Assay results taken from patent US7943786B2, “Process for preparing amorphous (4R-cis)-6-[2-[3-phenyl-4-(phenylcarbamoyl)-2-(4-fluorophenyl)-5-(1-methylethyl)-pyrrol-1-yl]-ethyl]-2,2-dimethyl-[1,3]-dioxane-4-yl-acetic acid” (priority 2003, dated 2011).

What was measured:
Assay type in all cases: physicochemical
[1] = Comparison of solubility of amorphous and crystalline form in aprotic organic solvents; conditions: e.g. diisopropyl ether, methyl cyclohexane, isopropanol
[2] = Dissolution in tetrahydrofuran (clarity of solution)
[3] = Solubility in water

Compound	solubility of amorphous versus crystalline form [1]	appearance of solution on dissolution in THF [2]	solubility in water [3]
CC(C)c1c(C(=O)Nc2ccccc2)c(-c2ccccc2)c(-c2ccc(F)cc2)n1CC[C@@H]1C[C@H](CC(=O)OC(C)(C)C)OC(C)(C)O1 [amorphous compound of the formula I, (4R-cis)-6-[2-[3-phenyl-4-(phenylcarbamoyl)-2-(4-fluorophenyl)-5-(1-methylethyl)-pyrrol-1-yl]-ethyl]-2,2-dimethyl-[1,3]-dioxane-4-yl-acetic acid-tertiary butyl ester]	better soluble	perfectly clear solution	–
CC(C)c1c(C(=O)Nc2ccccc2)c(-c2ccccc2)c(-c2ccc(F)cc2)n1CC[C@@H]1C[C@H](CC(=O)OC(C)(C)C)OC(C)(C)O1 [compound of the formula I, (4R-cis)-6-[2-[3-phenyl-4-(phenylcarbamoyl)-2-(4-fluorophenyl)-5-(1-methylethyl)-pyrrol-1-yl]-ethyl]-2,2-dimethyl-[1,3]-dioxane-4-yl-acetic acid-tertiary butyl ester]	–	–	very poor solubility in water or is practically insoluble in water
CC(C)c1c(C(=O)Nc2ccccc2)c(-c2ccccc2)c(-c2ccc(F)cc2)n1CC[C@@H]1C[C@H](CC(=O)OC(C)(C)C)OC(C)(C)O1 [crystalline compound of the formula I, (4R-cis)-6-[2-[3-phenyl-4-(phenylcarbamoyl)-2-(4-fluorophenyl)-5-(1-methylethyl)-pyrrol-1-yl]-ethyl]-2,2-dimethyl-[1,3]-dioxane-4-yl-acetic acid-tertiary butyl ester]	–	some dimness appeared	–
